In one data set the test system is DORmO mice. Description: Onset of diabetes in DORmO mice. Format: in vivo. From the text: In proof-of-principle studies, 12 candidate esters of 4-MU and 4 candidate esters of 4-MUG were generated and the conversion of these compounds into 4-MU in buffer containing bovin serum was examined. […] Compounds A and B were individually administered to 8 week old DORmO mice. Compound B, butyl-4-MUG, delayed diabetes onset by one month when compared to Compound A. In contrast, mice fed Compound A, ethyl-4-MUG, developed diabetes at 12 weeks of age, at the same time as untreated DORmO mice. […] Briefly, to determine that HA accumulates in the pancreatic islets and creates a permissive environment for autoimmune attacks during autoimmune diabetes disease progression, the DORmO double transgenic mouse model of autoimmune diabetes was used. DORmO mice predictably develop autoimmune diabetes because they are bred to have both a target antigen on their insulin producing beta-cells as well as an immune system that specifically recognizes that antigen. DORmO mice are the result of a cross between RIPmOVA mice (a strain that carries a gene specific for hen egg ovalbumin (OVA) that is only expressed on beta-cells, emulating the auto-antigen) and DO11.10 mice (a strain that carries a T-cell receptor transgene specific for OVA, emulating auto-reactive CD4+ T cells). DORmO mice spontaneously develop autoimmune insulitis starting at four weeks of age and all animals become diabetic (hyperglycemia >200 mg/dl) by 20 weeks of age (Wesley, J. D., et al., J. Immunol. 185, 4760-4768 (2010). Beginning at four weeks of age, mice were weighed weekly as well as bled via the tail vein for the determination of their blood glucose level using a Contour blood glucose meter and blood glucose monitoring strips (Bayer Healthcare). When two consecutive blood glucose readings of 250 mg/dL were recorded, animals were considered diabetic. When two consecutive blood glucose readings of 300 mg/dL were recorded, animals were euthanized. For the in vivo part the oral delivery in the drinking water was the same as for 4-MUG. […]

For data set [1] the following is noted: in vivo, cited from earlier work.
In another data set the test system is acute lung injury. Conditions: 4-MU treatment; cited from earlier work.
In another data set the test system is obese, diabetic mice. Conditions: 4-MU treatment; cited from earlier work.
Data set [2] has as its system collagen-induced arthritis model. Conditions: 4-MU treatment; cited from earlier work.
The next data set concerns EAE. Conditions: 4-MU treatment; cited from earlier work.
Another data set deals with ApoE-deficient mice. Conditions: 4-MU treatment, high-fat diet; cited from earlier work.
Data set [3] has as its system DORmO and NOD mouse models. Conditions: 4-MU treatment; cited from earlier work.
The test system of data set [4] is Biliary Duct Ligation (BDL) model. Conditions: 4-MU; cited from earlier work.
Another data set deals with HA synthesis. The experiment in a line: Hyaluronan (HA) ELISA of B16F10 cell cultures, inhibition of HA synthesis. Type of data set: cell-based, murine. Conditions: cells cultured 24-72 hours, HA in ELISA-like assay, normalized. The procedure:
B16F10 is a murine melanoma cell line. […] The cells were cultured at 37° C. temperature and an atmosphere of 95% air and 5% carbon dioxide. Cells were cultured in DMEM plus 10% FBS. For the 4-MUG ester experiments, cells were seeded in 48-well plates, at a density of 10,000 cells per well and cultured for 24-72 hours. 4-MU, 4-MUG and the 4-MUG esters were diluted 1:1000 from their stock concentration and added to the cell medium in their final μM concentrations. For the analysis, the cells and the cell supernatant were collected at the end of each experiment and stored at −20° C. until further use. 48-well plates from previous experiments were thawed and 200 μL cell lysis buffer was added to each well. Cells were incubated for 15 minutes at room temperature. The whole lysate was transferred into a 96-well v-bottom plate and centrifuged at 3500 g for 20 minutes at 4° C. After spinning 25 μL from each well was transferred into a flat-bottom 96-well plate and stored until further use. Cell lysis buffer contains Tris-HCl, EDTA, SDS, MgCl2 and Super Nucleasis®. Protein measurement was performed by using the Pierce BCA Protein Assay Kit® (Thermo Scientific) according to the manufacturer instructions. The BCA Protein assay is based on bicinchoninic acid (BCA) for the colorimetric detection and quantitation of total protein. This method combines a biuret reaction (reduction of Cu2+ to Cu1+ by protein in an alkaline medium) with a highly and selective colorimetric detection of the cuprous cation (Cu1+) with the help of bicinchoninic acid. A purple-colored reaction product is formed by the chelation of two BCA molecules with one cuprous ion. This complex has a strong absorbance at 562 nm. The identification of HA in the samples is achieved by utilizing a highly specific HA binding protein (HABP) probe that interacts with HA. […] The HA concentration in the tissue is determined by using an ELISA-like assay. […] The plate was read at 405 nm and the concentrations were calculated according to the standards.
Background: ELISA stands for enzyme-linked immunosorbent assay.

Data set [5] concerns FoxP3+ regulatory T-cells. Description: Induction of FoxP3+ regulatory T-cells in vivo. Conditions: mice. The procedure:
(§1) The 4-MU (Alfa Aesar) was pressed into the mouse chow by TestDiet® and irradiated before shipment. This chow formulation delivered 250 mg/mouse/day, yielding a serum drug concentration of 640.3±17.2 nmol/L in mice, as measured by HPLC-MS. 4-MUG (ChemImpex) was distributed in the drinking water of the mice at a 5% concentration which should deliver 0.325 mg/mouse/day, yielding a serum drug concentration of 357.1±72.6 ng/mL in mice, as measured by HPLC-MS. Mice were initiated on 4-MU and 4-MUG at five, eight or twelve weeks of age, unless otherwise noted, and were maintained on this diet until they were euthanized, unless otherwise noted. For analysis of Foxp3+ regulatory T cell numbers in naïve mice, mice were treated daily with 0.5 mg of 4-MU or 1.0 mg 4-MUG in 200 μl 0.08% carboxymethylcellulose in saline by intraperitoneal (i.p.) injection.

Data set [6] can be described thus: Serum drug concentration in mice by HPLC-MS. Conditions: 4-MUG in drinking water at 5%, 0.325 mg/mouse/day. Format: in vivo. As to the method:
as §1, with “([…])” for “(ChemImpex)”

For data set [7] the following is noted: after 6 months of treatment; cited from earlier work.

The structures appear in SMILES notation. “Also recorded” adds a separate entry of the source.

Turning to `Cc1cc(=O)oc2cc(O)ccc12` [Compound 4-MU, 4-methylumbelliferone], in the data set with DORmO mice (0.65% 4-MU (approximately 10x less)), the protection from diabetes result is given as “only partially protective”. In addition, the bioavailability in data set [1] (first-pass glucuronidation) is listed as 2-3%. Further, the “extraction by the liver” value in data set [1] is recorded as at most 97%. Besides, the lung injury entry in the data set on acute lung injury is on record as “decreased or prevented lung injury”. Besides, the glycemia result in the data set on obese, diabetic mice is “restores normoglycemia”. Further, the disease scores result in data set [2] is recorded as “improved disease scores”. The EAE disease entry with EAE was “prevent and treat disease; also recorded: limit the progression”. Moreover, the atherosclerosis entry with ApoE-deficient mice was “worse atherosclerosis”. In [3], the “progression of autoimmune diabetes” value was “limit the progression”. In [4], the fibrosis entry is “reduce fibrosis”.
Regarding `Cc1cc(=O)oc2cc(O[C@@H]3O[C@H](C(=O)O)[C@@H](O)[C@H](O)[C@H]3O)ccc12` [Compound 4-MUG, 4-methylumbelliferone glucuronide], the “inhibition of HA synthesis” value in the data set with HA synthesis is given as “inhibits HA synthesis by human cell lines as well as 4-MU; also recorded: inhibits HA synthesis as effectively as 4-MU”. For the same compound, in data set [5], the “fraction of Foxp3+ regulatory T-cells (induction)” value is listed as “also has this property in vivo; also recorded: does increase; also recorded: increases”, the “numbers of CD3+ T-cells” value is recorded as “does not increase”, the “numbers of CD4+ T-cells” value is given as “does not increase” and the “numbers of CD25+ T-cells” value was “does not increase”. The serum drug concentration in data set [6] worked out at 357.1 ± 72.6 ng/mL.
With `CCOC(=O)C1O[C@@H](Oc2ccc3c(C)cc(=O)oc3c2)C(O)[C@H](O)[C@@H]1O` (stereo partly drawn) [Compound A, 4-methylumbelliferyl β-D-glucuronide ethyl ester], in the data set on HA synthesis, the “inhibition of HA synthesis” value was “best inhibited HA synthesis in vitro”. Moreover, the “age at which mice developed diabetes” value with DORmO mice (8 week old DORmO mice, 0.05% in drinking water) was determined as 12 weeks.
In the case of `CCCCOC(=O)C1O[C@@H](Oc2ccc3c(C)cc(=O)oc3c2)C(O)[C@H](O)[C@@H]1O` (stereo partly drawn) [Compound B], the “inhibition of HA synthesis” value with HA synthesis is reported as “best inhibited HA synthesis in vitro”. For the same compound, the onset of diabetes result in the data set on DORmO mice (at 1/100th the dose of 4-MU) was “delays the onset of diabetes”.
Regarding `C[C@H](CCC(=O)O)[C@H]1CC[C@H]2[C@@H]3[C@@H](O)C[C@@H]4C[C@H](O)CC[C@]4(C)[C@H]3CC[C@]12C` [UDCA, ursodeoxycholic acid], the “bile concentration of UDCA” value in [7] is recorded as “up to 70%”.

The values are drawn from US11278518B2, “Methods of treatment using 4-methylumbelliferone and derivatives thereof” (The Board of Trustees of the Leland Stanford Junior …, priority 2017, dated 2022).
